Measurements: patent US6673565B2 (priority 1999, dated 2004)

Legend:
Urease = Urease (Canavalia ensiformis, UniProt P07374); assay type: biochemical
Butyrylcholinesterase = Butyrylcholinesterase (Homo sapiens, UniProt P06276); assay type: biochemical
Chain of Butyrylcholinesterase (P06276 29-602): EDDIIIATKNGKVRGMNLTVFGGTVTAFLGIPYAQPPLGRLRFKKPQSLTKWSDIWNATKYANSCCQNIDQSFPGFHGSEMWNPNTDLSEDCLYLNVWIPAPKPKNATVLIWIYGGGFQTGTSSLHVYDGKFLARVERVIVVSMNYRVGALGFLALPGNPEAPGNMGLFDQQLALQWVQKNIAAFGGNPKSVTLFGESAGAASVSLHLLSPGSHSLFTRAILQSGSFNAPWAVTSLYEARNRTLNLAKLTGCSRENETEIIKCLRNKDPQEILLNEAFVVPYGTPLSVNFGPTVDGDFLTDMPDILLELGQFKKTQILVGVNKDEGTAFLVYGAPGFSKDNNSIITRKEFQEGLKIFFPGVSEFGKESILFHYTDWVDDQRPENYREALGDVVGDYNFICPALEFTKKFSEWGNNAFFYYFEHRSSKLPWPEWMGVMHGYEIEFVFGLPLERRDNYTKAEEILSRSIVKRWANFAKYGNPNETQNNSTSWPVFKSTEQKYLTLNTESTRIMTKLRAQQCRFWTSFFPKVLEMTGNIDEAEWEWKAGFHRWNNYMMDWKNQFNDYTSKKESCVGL

Chain of Urease (P07374 whole entry, looked up): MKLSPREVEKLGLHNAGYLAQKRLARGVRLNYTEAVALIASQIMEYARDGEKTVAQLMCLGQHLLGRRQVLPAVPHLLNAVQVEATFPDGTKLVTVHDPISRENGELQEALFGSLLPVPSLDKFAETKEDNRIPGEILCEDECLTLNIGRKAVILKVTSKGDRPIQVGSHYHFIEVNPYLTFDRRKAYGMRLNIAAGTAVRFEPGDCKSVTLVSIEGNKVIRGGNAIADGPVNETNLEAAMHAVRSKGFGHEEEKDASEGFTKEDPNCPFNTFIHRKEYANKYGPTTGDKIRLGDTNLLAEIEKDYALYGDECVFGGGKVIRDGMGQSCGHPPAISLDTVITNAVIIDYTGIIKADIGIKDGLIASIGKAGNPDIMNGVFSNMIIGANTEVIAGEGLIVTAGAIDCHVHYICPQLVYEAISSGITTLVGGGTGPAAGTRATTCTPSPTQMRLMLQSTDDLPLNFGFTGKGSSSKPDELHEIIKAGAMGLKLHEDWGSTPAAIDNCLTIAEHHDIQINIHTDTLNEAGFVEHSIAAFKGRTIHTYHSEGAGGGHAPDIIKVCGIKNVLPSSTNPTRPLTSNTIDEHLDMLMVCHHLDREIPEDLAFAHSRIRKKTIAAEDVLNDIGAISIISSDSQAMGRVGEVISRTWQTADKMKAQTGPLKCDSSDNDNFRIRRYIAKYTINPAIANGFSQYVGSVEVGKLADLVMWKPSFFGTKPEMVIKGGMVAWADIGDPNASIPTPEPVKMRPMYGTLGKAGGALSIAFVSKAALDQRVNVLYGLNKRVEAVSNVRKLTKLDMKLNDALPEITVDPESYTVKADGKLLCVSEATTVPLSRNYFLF

## NC(N)=O [urea]
Urease
  Color change of urease/m-cresol purple polymer disks: transition from yellow to blue

## CCOP(=O)(OCC)Oc1ccc([N+](=O)[O-])cc1 [paraoxon, Paraoxon]
Butyrylcholinesterase
  Inhibition of BChE polymer used to wipe paraoxon-containing beakers: complete inhibition
